The values that follow come from patent US6998404B2, “Treatment or prevention of acute renal failure” (priority 2001, dated 2006).

Molecules are shown by their SMILES. Read-outs that look alike come from different tables or passages of the source.

The conditions of series [1]: radiocontrast nephropathy, impaired renal excretory, endocrine and tubular function, cited from earlier work.
For series [2] the following is noted: human trials, radio-contrast renal injury, IV, administered before the toxic insult; cited from earlier work.
The conditions of series [3]: patients, aminophylline toxicity; cited from earlier work.
For series [4] the following is noted: rat, glycerol-induced ARF, IV, administered before the toxic insult; cited from earlier work.
Series [5] in a line: treatment of oliguric prerenal acute renal failure, need for dialysis. The format is in vivo, human. The following applies: patients with acute renal failure progressed to oliguria (less than 300 ml urine output per day). The text has this: Adenosine receptor antagonists, especially aminophyllline, are used to treat or prevent acute renal failure. Adenosine antagonists are suited for prerenal acute renal failure only.

For series [6] the following is noted: cyclosporin-A-induced renal failure with renal vasoconstriction; cited from earlier work.

As to `Cn1c(=O)c2[nH]cnc2n(C)c1=O` [Theophyllin E], the “protective role in preventing RCN” value in series [1] was “effective in preventing RCN impaired renal excretory, endocrine and tubular function”.

For the compound `Cn1c(=O)c2[nH]cnc2n(C)c1=O` [aminophylline], the “prevention of ARF” value in series [2] and in series [4] was “dramatic in preventing ARF” throughout. In series [3], the “serum theophylline level at which nausea and vomiting usually occur” value is “around 20 micrograms/ml”. In addition, the “protective role in preventing RCN” value in series [1] (listed as Aminophylline) is on record as “does not appear to add a protective role in preventing RCN”. Further, the “patients in whom the need for dialysis is obviated” value in series [5] is given as “over 50%”.

Turning to `Cn1c(=O)c2[nH]cnc2n(C)c1=O` [theophylline], the “restoration of renal function” value in series [6] is given as “restored renal function significantly”.
